The term melting point denotes the temperature of the solid-liquid transition. For `CCOC(=O)c1ccc2c(c1)CCC(CNC[C@H](O)c1cccc(Cl)c1)O2.Cl` (some centres unmarked), the melting point fell in the range of 234 to 235 °C. For the compound `CCOC(=O)CCc1ccc2c(c1)CCC(CNC[C@H](O)c1cccc(Cl)c1)O2.Cl` (some centres unmarked), the melting point is 189 to 190 °C.

These data come from patent US6797714B2, “Carboxyl substituted chroman derivatives useful as beta 3 adrenoreceptor agonists” (Bayer Pharmaceuticals Corporation, priority 1997, dated 2004).
